In PubChem BioAssay (NCI):
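Grown in 96-well plates, cells were treated for 48 hours with each compound at five concentrations. Insufficient inhibition: endpoint recorded as highest concentration tested. GI50 marks 50% less growth. TGI marks complete inhibition of growth.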

Assays:
Experiment in all cases: inhibition of tumour cell growth, NCI panel, 48 h
MALME-3M melanoma = tested on: MALME-3M melanoma
OVCAR-8 ovarian = tested on: OVCAR-8 ovarian
CAKI-1 renal = tested on: CAKI-1 renal
IGROV1 ovarian = tested on: IGROV1 ovarian
TK-10 renal = tested on: TK-10 renal
SF-268 CNS = tested on: SF-268 CNS
SK-OV-3 ovarian = tested on: SK-OV-3 ovarian
A549 NSCLC = tested on: A549 NSCLC
HOP-92 NSCLC = tested on: HOP-92 NSCLC
HOP-62 NSCLC = tested on: HOP-62 NSCLC
SNB-75 CNS = tested on: SNB-75 CNS
SW-620 colon = tested on: SW-620 colon
SR leukemia = tested on: SR leukemia
UACC-257 melanoma = tested on: UACC-257 melanoma
OVCAR-5 ovarian = tested on: OVCAR-5 ovarian
HL-60(TB) leukemia = tested on: HL-60(TB) leukemia
HCC-2998 colon = tested on: HCC-2998 colon
OVCAR-3 ovarian = tested on: OVCAR-3 ovarian
T-47D breast = tested on: T-47D breast
SF-295 CNS = tested on: SF-295 CNS
COLO 205 colon = tested on: COLO 205 colon
NCI/ADR-RES ovarian = tested on: NCI/ADR-RES ovarian
HCT-15 colon = tested on: HCT-15 colon
A498 renal = tested on: A498 renal
NCI-H522 lung = tested on: NCI-H522 lung
M14 melanoma = tested on: M14 melanoma
SNB-19 CNS = tested on: SNB-19 CNS
MDA-MB-231 breast = tested on: MDA-MB-231 breast
NCI-H226 lung = tested on: NCI-H226 lung
UO-31 renal = tested on: UO-31 renal
NCI-H460 lung = tested on: NCI-H460 lung
HCT-116 colon = tested on: HCT-116 colon
DU-145 prostate = tested on: DU-145 prostate
SK-MEL-2 melanoma = tested on: SK-MEL-2 melanoma
NCI-H23 lung = tested on: NCI-H23 lung
KM12 colon = tested on: KM12 colon
HS 578T breast = tested on: HS 578T breast
BT-549 breast = tested on: BT-549 breast
K-562 leukemia = tested on: K-562 leukemia
ACHN renal = tested on: ACHN renal
RPMI-8226 leukemia = tested on: RPMI-8226 leukemia
786-0 renal = tested on: 786-0 renal
MDA-MB-435 = tested on: MDA-MB-435
SF-539 CNS = tested on: SF-539 CNS
OVCAR-4 ovarian = tested on: OVCAR-4 ovarian
SN12C renal = tested on: SN12C renal
LOX IMVI melanoma = tested on: LOX IMVI melanoma
SK-MEL-28 melanoma = tested on: SK-MEL-28 melanoma
HT29 colon = tested on: HT29 colon
PC-3 prostate = tested on: PC-3 prostate
SK-MEL-5 melanoma = tested on: SK-MEL-5 melanoma
MOLT-4 leukemia = tested on: MOLT-4 leukemia
UACC-62 melanoma = tested on: UACC-62 melanoma
EKVX NSCLC = tested on: EKVX NSCLC
MCF7 breast = tested on: MCF7 breast
CCRF-CEM leukemia = tested on: CCRF-CEM leukemia
U251 CNS = tested on: U251 CNS
RXF 393 renal = tested on: RXF 393 renal

For `CCCn1cnc2c(c1=N)C(c1ccc(Cl)cc1)c1sc3c(CC)cccc3c1O2` (stereo not given), the GI50 (MALME-3M melanoma) was 722 nM, the TGI (MALME-3M melanoma) was 20300 nM and the GI50 (OVCAR-8 ovarian) was 1380 nM. The TGI (OVCAR-8 ovarian) was 13400 nM, the GI50 (CAKI-1 renal) was 361 nM and the TGI (CAKI-1 renal) was 15600 nM. The GI50 (IGROV1 ovarian) was 607 nM, the TGI (IGROV1 ovarian) was 11800 nM and the GI50 (TK-10 renal) was 7620 nM. The TGI (TK-10 renal) was 23500 nM, the GI50 (SF-268 CNS) was 820 nM and the TGI (SF-268 CNS) was 15200 nM. The GI50 (SK-OV-3 ovarian) was 670 nM, the TGI (SK-OV-3 ovarian) was 20800 nM and the GI50 (A549 NSCLC) was 824 nM. The TGI (A549 NSCLC) was 14200 nM, the GI50 (HOP-92 NSCLC) was 1250 nM and the TGI (HOP-92 NSCLC) was 12800 nM. For the same molecule, the GI50 (HOP-62 NSCLC) was 563 nM, the TGI (HOP-62 NSCLC) was 8930 nM and the GI50 (SNB-75 CNS) was 202 nM. The TGI (SNB-75 CNS) was 878 nM, the GI50 (SW-620 colon) was 422 nM and the TGI (SW-620 colon) was 12800 nM. The GI50 (SR leukemia) was 342 nM, the TGI (SR leukemia) was 5010 nM and the GI50 (UACC-257 melanoma) was 12200 nM. It also gave a TGI (UACC-257 melanoma) of 33700 nM, a GI50 (OVCAR-5 ovarian) of 2130 nM and a TGI (OVCAR-5 ovarian) of 13300 nM. It also gave a GI50 (HL-60(TB) leukemia) of 307 nM, a TGI (HL-60(TB) leukemia) of 1660 nM and a GI50 (HCC-2998 colon) of 1750 nM. For the same molecule, the TGI (HCC-2998 colon) was 7550 nM, the GI50 (OVCAR-3 ovarian) was 347 nM and the TGI (OVCAR-3 ovarian) was 1780 nM. For the same molecule, the GI50 (T-47D breast) was 581 nM, the TGI (T-47D breast) was 14900 nM and the GI50 (SF-295 CNS) was 385 nM. The TGI (SF-295 CNS) was 3750 nM, the GI50 (COLO 205 colon) was 971 nM and the TGI (COLO 205 colon) was 3930 nM. It also gave a GI50 (NCI/ADR-RES ovarian) of 419 nM, a TGI (NCI/ADR-RES ovarian) of 2750 nM and a GI50 (HCT-15 colon) of 497 nM. For the same molecule, the TGI (HCT-15 colon) was 10400 nM, the GI50 (A498 renal) was 359 nM and the TGI (A498 renal) was 1830 nM. It also gave a GI50 (NCI-H522 lung) of 407 nM, a TGI (NCI-H522 lung) of 5530 nM and a GI50 (M14 melanoma) of 588 nM. For the same molecule, the TGI (M14 melanoma) was 9750 nM, the GI50 (SNB-19 CNS) was 592 nM and the TGI (SNB-19 CNS) was 15400 nM. The GI50 (MDA-MB-231 breast) was 1950 nM, the TGI (MDA-MB-231 breast) was 13700 nM and the GI50 (NCI-H226 lung) was 936 nM. The TGI (NCI-H226 lung) was 10200 nM, the GI50 (UO-31 renal) was 712 nM and the TGI (UO-31 renal) was 18300 nM. The GI50 (NCI-H460 lung) was 392 nM, the TGI (NCI-H460 lung) was 10400 nM and the GI50 (HCT-116 colon) was 446 nM. It also gave a TGI (HCT-116 colon) of 10300 nM, a GI50 (DU-145 prostate) of 615 nM and a TGI (DU-145 prostate) of 11400 nM. The GI50 (SK-MEL-2 melanoma) was 925 nM, the TGI (SK-MEL-2 melanoma) was 16000 nM and the GI50 (NCI-H23 lung) was 974 nM. It also gave a TGI (NCI-H23 lung) of 11300 nM, a GI50 (KM12 colon) of 448 nM and a TGI (KM12 colon) of 13400 nM. The GI50 (HS 578T breast) was 434 nM, the TGI (HS 578T breast) was 5640 nM and the GI50 (BT-549 breast) was 1960 nM. For the same molecule, the TGI (BT-549 breast) was 16700 nM, the GI50 (K-562 leukemia) was 328 nM and the TGI (K-562 leukemia) was 6150 nM. It also gave a GI50 (ACHN renal) of 637 nM, a TGI (ACHN renal) of 17000 nM and a GI50 (RPMI-8226 leukemia) of 471 nM. The TGI (RPMI-8226 leukemia) was 7390 nM, the GI50 (786-0 renal) was 555 nM and the TGI (786-0 renal) was 12900 nM. The GI50 (MDA-MB-435) was 250 nM, the TGI (MDA-MB-435) was 1000 nM and the GI50 (SF-539 CNS) was 410 nM. For the same molecule, the TGI (SF-539 CNS) was 1900 nM, the GI50 (OVCAR-4 ovarian) was 1200 nM and the TGI (OVCAR-4 ovarian) was 18200 nM. For the same molecule, the GI50 (SN12C renal) was 1580 nM, the TGI (SN12C renal) was 15000 nM and the GI50 (LOX IMVI melanoma) was 706 nM. The TGI (LOX IMVI melanoma) was 10900 nM, the GI50 (SK-MEL-28 melanoma) was 2990 nM and the TGI (SK-MEL-28 melanoma) was 22400 nM. For the same molecule, the GI50 (HT29 colon) was 725 nM, the TGI (HT29 colon) was 6130 nM and the GI50 (PC-3 prostate) was 564 nM. The TGI (PC-3 prostate) was 14700 nM, the GI50 (SK-MEL-5 melanoma) was 683 nM and the TGI (SK-MEL-5 melanoma) was 11500 nM. The GI50 (MOLT-4 leukemia) was 644 nM, the TGI (MOLT-4 leukemia) was 9250 nM and the GI50 (UACC-62 melanoma) was 515 nM. For the same molecule, the TGI (UACC-62 melanoma) was 14500 nM, the GI50 (EKVX NSCLC) was 1120 nM and the TGI (EKVX NSCLC) was 16600 nM. The GI50 (MCF7 breast) was 354 nM, the TGI (MCF7 breast) was 11700 nM and the GI50 (CCRF-CEM leukemia) was 370 nM. It also gave a GI50 (U251 CNS) of 505 nM, a TGI (U251 CNS) of 10900 nM and a GI50 (RXF 393 renal) of 273 nM. The TGI (RXF 393 renal) was 1310 nM.
